Data: US4835160A, “Derivatives of pyridoindole, having anti-tumor properties” (Sanofi, priority 1986, dated 1989)
Values joined by “and” are separate entries in the source; they are usually repeats but may differ in a detail not shown here. Equal values may be shown once. Where a name gives a salt, the structure may show the parent alone.

Experiments:
[1] = system: leukemia tumour line L 1210; assay: In vitro cytotoxic activity on leukemia tumour line L 1210; assay type: cell-based; settings: Mus musculus, L1210, 48 h, L 1210, 48 hours contact, 37° C.; read-out: I D 50 (concentration which inhibits the proliferation of the cells by 50%)
Description: (1) In vitro: ([…] et al., Chem. Biol. Interaction, 1979, 25, 45-58). The cytotoxic activity of the compounds of the invention has been evaluated by in vitro tests. These tests consist of adding increasing concentrations of the compound under test to a cellular culture of the leukemia tumour line L 1210 in an exponential phase of growth. The cellules are incubated at 37° C. in a CO2 incubator and counted every 24 hours. The calculation of the I D 50 (concentration of the product, expressed in 1^-1 micromole, which inhibits the proliferation of the cells by 50%) is made after 48 hours contact.

reticulosarcoma M5-M5076 = assay: Test for reticulosarcoma M5-M5076; assay type: in vivo, BDF1 hybrid mice; settings: 160 mg/kg IP, D1,5,9,13,17
Description: (§1) The antitumour activity was tested in vivo on various tumours inoculated in various ways according to the following general protocol:
(§2) All the male or female mice are inoculated on day D0 with a known quantity of viable tumour cells for ascitic tumours or with a known tumour fragment for solid tumours.
(§3) They are then distributed into various groups. Each group, corresponding to the animals treated by the product under test, is made up of 10 mice. The product under test is dissolved in distilled water and it is administered n times (Dx-Dy), n, y, and x varying according to the protocol chosen, at the rate of 0.1 ml of solution per 10 g by weight of mice treated and at specific doses for each protocol.
(§4) The "negative control" group, corresponding to the animals which are not treated by the product, contains 2√N animals, N being equal to or greater than the total number of mice treated by the product in the same experiment.
(§5) Finally, the tests can also be carried out at the same time as the study of a group called "positive control", of ten animals, which is treated by a molecule, known for its antitumour activity and which can vary according to the protocol chosen, in the same conditions as the groups treated by the product under test.
(§6) The antitumour activity is evaluated, in the case of ascitic tumours, by considering the increase in the survival time of the animals treated in comparison to that of the animals in the "negative control" group, according to the formula: [formula]
(§7) Also, a product is considered as toxic at the dose studied when this T/C value is equal to or less than 85%. In addition, a product is also considered as toxic at the dose studied when the weight variation, expressed in grams and calculated by the formula: […]
The tests are carried out with BDF1 hybrid mice inoculated by intraperitoneal route with 10^6 cells of the M5-M5076 line. The compound under test is administered 5 times successively in sequence (D1,5,9,13,17) by intraperitoneal route. The positive control for the test is cyclophosphamide administered in the same conditions. The number of surviving animals is evaluated on day D75.

leukemia P 388 = assay: Test of leukemia P 388; IP/IP, D1-5; assay type: in vivo, CDF1 hybrid mice; settings: D1-D5; for Number of survivors: day D30; for T/C %: survival time
Description: (2) In vivo: (GERAN et al., Cancer Chemother., 1972, 2, 07-57):
as §1, §2, §3, §4, §5, §6
The criterion for activity varies according to the protocol.
as §7
"Average weight of the group measured on day 5--Average weight of the same group measured on day 1"
is equal to or less than 4 g.
(a) Test of lelukemia P 388; IP/IP, D1-5 (GERAN et al., Cancer Chemother., 1972, 2, 07-57).
(§8) The tests are carried out with CDF1 hybrid mice inoculated by intraperitoneal route with 10^6 leukemia cells from the P 388 line. The compound under test is administered for 5 successive days (D1-D5) by intraperitoneal route. The positive control for the test is 5-fluorouracile which is administered in the same conditions. The number of surviving animals is evaluated on day D30.

leukemia P388 = assay: Test for leukemia P388, IP/IP, D1; assay type: in vivo, CDF1 hybrid mice; settings: 200 mg/kg IP
Description: as §1, §2, §3, §4, §5, §6, §7, §8
(b) Test for Leukemia P388, IP/IP, D1 (GERAN et al. Cancer chemother., 1972, 2, 07-57).
The test is carried out according to the preceding protocol, the compound under test being administered only on day D1.

leukemia L 1210 = assay: Test for leukemia L 1210, IP/IP, D1-D5; assay type: in vivo, CDF1 hybrid mice; settings: 20 mg/kg IP
Description: as §1, §2, §3, §4, §5, §6, §7
(c) Test for leukemia L 1210, IP/IP, D-5 (GERAN et al., Cancer cheomother.,1972, 2, 07-57).
as §8, with “10^5” for “10^6”, “L 1210” for “P 388”, “5” for “5 successive”, “5-fluorouracile” for “5-fluorouracile which is”, “D60.” for “D30.”

melanoma B 16 = assay: Test for melanoma B 16; assay type: in vivo, BDF1 hybrid mice; settings: 0.5 mg/kg IP, D1-D9
Description: as §1, §2, §3, §4, §5, §6, §7
(d) Test for melanoma B 16 (GERAN et al., Cancer Chemother., 1972, 2, 07-75).
The tests are carried out with BDF1 hybrid mice inoculated by intraperitoneal route with 0.5 ml of a homogenate of melanoma B 16 made up from 1 g of tumour in 10 ml of physiological serum. The compound under test is administered for 9 days (D1-D9) by intraperitoneal route. The positive control for the test is Cis-Platine administered in the same conditions. The number of surviving animals is evaluated on day D60.

**Q.** How did the IC50 [1] turn out when `CCN(CC)CCCNc1ncc(C)c2[nH]c3ccccc3c12` [Derivative 1] was run?
**A.** 200 nM

**Q.** With `CCNCCCNc1ncc(C)c2[nH]c3ccc(OC)cc3c12` [Derivative No. 5, 1-(3-ethylaminopropylamino)-8-methoxy-4-methyl-5H-pyrido[4,3-b]indole] as the compound, how does the IC50 [1] read?
**A.** 1200 nM

**Q.** How did the IC50 [1] turn out when `CCN(CC)CCCNc1ncc(C)c2c1c1cc(OC)ccc1n2C` [Derivative No. 6, 1-(3-diethylaminopropylamino)-4,5-dimethyl-8-methoxy-5H-pyrido[4,3-b]indole] was run?
**A.** 100 nM

**Q.** Which IC50 [1] does the source give for `COc1ccc2c(c1)c1c(NCC(C)CN(C)C)ncc(C)c1n2C` (racemic) [Derivative No. 20, 4,5-dimethyl-1-(3-dimethylamino-2-methylpropylamino)-8-methoxy-5pyrido[4,3-b]i dihydrochloride] here?
**A.** 1000 nM

**Q.** What does the source list for `O=P1(N(CCCl)CCCl)NCCCO1` (stereo not drawn) [Cyclopnospnamide, cyclophosphamide, reference compound]?
**A.** Median day of survival (reticulosarcoma M5-M5076): > 60 days and 57.0 days; Number of survivors (reticulosarcoma M5-M5076; day D75): 9/10 and 0/10; T/C % (reticulosarcoma M5-M5076; survival time): > 239% and 219% and > 234%

**Q.** Which IC50 [1] does the source give for `CCN(CC)CCCCNc1ncc(C)c2c1c1cc(OC)ccc1n2C` [Derivative No. 22, 1-(4-diethylaminobutylamino)-4,5-dimethyl-8-methoxy-5H-pyrido[4,3-b]indoledihydrochloride] here?
**A.** 1300 nM

**Q.** For `CCN(CC)CCNc1ncc(C)c2c1c1cc(O)ccc1n2C.Cl.Cl` [Derivative No. 19, 1-(2-diethylaminoethylamino)-4,5-dimethyl-8-hydroxy-5H-pyrido[4,3-b]indole dihydrochloride], which IC50 [1] is on record?
**A.** 150 nM

**Q.** And the “Median day of survival” value (leukemia P 388; 5 mg/kg IP)?
**A.** 15.3 days

**Q.** What about the “Variation by weight (g)” value (leukemia P 388; 5 mg/kg IP) of the same compound?
**A.** +0.5 g

**Q.** And the Number of survivors (leukemia P 388; 5 mg/kg IP)?
**A.** 0/6

**Q.** What about the T/C % (leukemia P 388; 5 mg/kg IP) of the same compound?
**A.** 142%

**Q.** And the “Median day of survival” value (leukemia P 388; 10 mg/kg IP)?
**A.** 17.0 days

**Q.** And the “Variation by weight” value (leukemia P 388; 10 mg/kg IP)?
**A.** -0.2 g

**Q.** What about the Number of survivors (leukemia P 388; 10 mg/kg IP) of the same compound?
**A.** 0/6

**Q.** And the T/C % (leukemia P 388; 10 mg/kg IP)?
**A.** 153%

**Q.** What about the “Median day of survival” value (leukemia P 388; 20 mg/kg IP) of the same compound?
**A.** 20.3 days

**Q.** What about the “Variation by weight (g)” value (leukemia P 388; 20 mg/kg IP) of the same compound?
**A.** +0.3 g

**Q.** What about the Number of survivors (leukemia P 388; 20 mg/kg IP) of the same compound?
**A.** 0/6

**Q.** What about the T/C % (leukemia P 388; 20 mg/kg IP) of the same compound?
**A.** 182%

**Q.** And the “Median day of survival” value (leukemia P 388; 40 mg/kg IP)?
**A.** 15.3 days

**Q.** And the “Variation by weight” value (leukemia P 388; 40 mg/kg IP)?
**A.** -2.1 g

**Q.** What about the Number of survivors (leukemia P 388; 40 mg/kg IP) of the same compound?
**A.** 0/6

**Q.** And the T/C % (leukemia P 388; 40 mg/kg IP)?
**A.** 137%

**Q.** Which IC50 [1] does the source give for `Cc1cnc(NCC(C)CN(C)C)c2c3cc(O)ccc3n(C)c12` (racemic) [Derivative No. 21, 4,5-dimethyl-1-(3-dimethylamino-2-methylpropylamino)-8-hydroxy-5H-pyrido[4,3-b]dihydrochloride] here?
**A.** 10 nM

**Q.** For `COc1ccc2c(c1)c1c(NCCCN(C)C)ncc(C)c1n2C.Cl.Cl` [Derivative No. 13, 4,5-dimethyl-1-(3-dimethylaminopropylamino)-8-methoxy-5H-pyrido[4,3-b]indole dihydrochloride], which IC50 [1] is on record?
**A.** 130 nM

**Q.** And the “Median day of survival” value (leukemia P 388; 5 mg/kg IP)?
**A.** 14.1 days

**Q.** And the “Variation by weight (g)” value (leukemia P 388; 5 mg/kg IP)?
**A.** +1.0 g

**Q.** And the Number of survivors (leukemia P 388; 5 mg/kg IP)?
**A.** 0/10

**Q.** What about the T/C % (leukemia P 388; 5 mg/kg IP) of the same compound?
**A.** 134%

**Q.** And the “Median day of survival” value (leukemia P 388; 10 mg/kg IP)?
**A.** 16.8 days

**Q.** And the “Variation by weight (g)” value (leukemia P 388; 10 mg/kg IP)?
**A.** +1.2 g

**Q.** And the Number of survivors (leukemia P 388; 10 mg/kg IP)?
**A.** 0/10

**Q.** And the T/C % (leukemia P 388; 10 mg/kg IP)?
**A.** 160%

**Q.** And the “Median day of survival” value (leukemia P 388; 20 mg/kg IP)?
**A.** 15.8 days

**Q.** And the “Variation by weight (g)” value (leukemia P 388; 20 mg/kg IP)?
**A.** +0.4 g

**Q.** What about the Number of survivors (leukemia P 388; 20 mg/kg IP) of the same compound?
**A.** 0/10

**Q.** What about the T/C % (leukemia P 388; 20 mg/kg IP) of the same compound?
**A.** 150%

**Q.** And the “Median day of survival” value (leukemia P 388; 40 mg/kg IP)?
**A.** 8.4 days

**Q.** What about the “Variation by weight” value (leukemia P 388; 40 mg/kg IP) of the same compound?
**A.** -2.5 g

**Q.** What about the Number of survivors (leukemia P 388; 40 mg/kg IP) of the same compound?
**A.** 0/10

**Q.** And the T/C % (leukemia P 388; 40 mg/kg IP)?
**A.** 80%

**Q.** For `CCN(CC)CCNc1ncc(C)c2c1c1cc(OC)ccc1n2C` [Derivative No. 18, 1-(2-diethylaminoethylamino)-4,5-dimethyl-8-methoxy-5H-pyrido[4,3-b]indole dihydrochloride], which IC50 [1] is on record?
**A.** 1200 nM

**Q.** With `Cc1cnc(NCCCN(C)C)c2c1[nH]c1ccccc12` [Derivative No. 2, 1-(3-dimethylaminopropylamino)-4-methyl-5H-pyrido-[4,3-b]indole] as the compound, how does the IC50 [1] read?
**A.** 160 nM

**Q.** Which results are given for `O=c1[nH]cc(F)c(=O)[nH]1` [5-Fluorouracile, 5-fluorouracile, reference compound]?
**A.** Median day of survival (leukemia P388): 19.0 days; Variation by weight (leukemia P388): -3.2 g; Number of survivors (leukemia P388; day D30): 0/10; T/C % (leukemia P388; survival time): 173%; Median day of survival (leukemia L 1210): 16.0 days; Variation by weight (leukemia L 1210): -0.5 g; Number of survivors (leukemia L 1210; day D60): 0/10; T/C % (leukemia L 1210; survival time): 182%; Median day of survival (leukemia P 388; 20 mg/kg IP): 20.1 days and 18.9 days and 19 days and 17.75 days and 16.7 days and 18.8 days and 20 days and 17 days; Number of survivors (leukemia P 388; 20 mg/kg IP): 0/10; T/C % (leukemia P 388; 20 mg/kg IP): 166% and 164% and 168% and 160% and 147% and 173% and 171% and 154%

**Q.** `CCN(CC)CCCCNc1ncc(C)c2c1c1cc(O)ccc1n2C` [Derivative No. 23, 1-(4-diethylaminobutylamino)-4,5-dimethyl-8-hydroxy-5H-pyrido[4,3-b]indoledihydrochloride] was tested. Which IC50 [1] did it give?
**A.** 310 nM

**Q.** Which results are given for `[NH2][Pt]([NH2])([Cl])[Cl]` [Cis-Platine, reference compound]?
**A.** Median day of survival (melanoma B 16): 36 days and 30.0 days and 38.75 days; Variation by weight (melanoma B 16): -0.6 g; Number of survivors (melanoma B 16; day D60): 0/10; T/C % (melanoma B 16; survival time): 131% and 126% and 141%

**Q.** How did the IC50 [1] turn out when `CCN(CC)CCCNc1ncc(C)c2c1c1ccccc1n2C` [Derivative No. 16, 1-(3-diethylaminopropylamino)-4,5-dimethyl-5H-pyrido[4,3-b]indole dihydrochloride] was run?
**A.** 720 nM

**Q.** With `Cc1cnc(NCCNCCO)c2c1[nH]c1ccccc12` [Derivative 3] as the compound, how does the IC50 [1] read?
**A.** 1140 nM
